Reference: patent US20150011471A1, “REGENERATION OF ISLET BETA CELLS BY HSP60 DERIVED PEPTIDES” (Yeda Research and Development Co. Ltd., priority 2012, published 2015)
Where two headings read alike, the source gives them in different places. Where no end group is shown, it is not given here.

Key:
[1] = test system: NOD mice; conditions: subcutaneous administration; cited from earlier work
[2] = test system: advanced T1D in NOD mice
Excerpt: Female non-obese diabetic (NOD) mice, which spontaneously develop autoimmune diabetes that mimics human T1D, are used to test the ability of the Hsp60 peptides and peptide analogs to induce regeneration of pancreatic beta cells. The NOD model is described, for example in Elias and Cohen (Lancet 1994, 343, 704-706). Female NOD mice raised under specific pathogen free (SPF) conditions develop insulitis around 4 weeks of age. […] In addition, the actual appearance of new beta cells, detected by increased C-peptide levels is measured in the revised protocol and not just preservation of initial C-peptide levels as in the original protocol.
Groups of 7 weeks old NOD/ShiLtJ mice (Jackson Number 001976, 10 mice per group) were used. Fasting blood glucose was monitored three times per week during all the treatment period, using methods known in the art. After about 12-20 weeks, when blood glucose reaches a level of […] the mice are treated with insulin in order to keep them alive and divided randomly between the following group treatments: • 1. no treatment; • 2. […]® only, once a week; • 3.
Fasting glucose was measured Hemoglobin A1C and C-peptide levels were measured at the end of treatment, up to six months, depending on the conditions of the control and treated animals.
Histology was performed to detect and count beta cells in pancreatic islets and to observe islet infiltrates. Histology was performed by staining for insulin and detection of appearance of beta cells, as described for example in Lumelsky et al, Science 2001, 292, 1389-1394.

| Substance | Development of diabetes in NOD mice [1] | T-cell reactivity to beta cell antigens [1] | Islets per whole section ([2]; 100 μg in INTRALIPID, SC, 1 injection/week) | Islets per whole section ([2]; 100 μg in PBS, IP, 3 injections/week) | Islets per whole section ([2]; 200 μg in INTRALIPID, SC, 1 injection/week) | Lymphocyte infiltrates compared to control mice treated with placebo ([2]; treated mice overall, Table 1) | Number of beta islets compared to control mice treated with placebo ([2]; treated mice overall, Table 1) |
| --- | --- | --- | --- | --- | --- | --- | --- |
| p277: specific peptide of human Hsp60, one of the immunodominant epitopes in autoimmune diabetes; native cysteines at positions 6 and 11 (VLGGGCALLRCIPALDSLTPANED; UniProt P10809 437-460, looked up, fragment) | prevented the development of diabetes | down-regulated |  |  |  |  |  |
| VLGGGVALLRVIPALDSLTPANED [DiaPep277] |  |  | 3 | 2 | 1 | less lymphocyte infiltrates | increased number of beta islets |
